Test results reported in US6432426B1, “Non-staining topical iodine composition and method” (Symbollon Corporation, priority 1998, dated 2002).

How the values were obtained:
epidermis = assay: Staining of epidermis by triiodide solutions, 10 second contact on forearm; format: in vivo, human
Experimental: 3. […] Solutions of triiodide were prepared by dissolving elemental iodine into oxygen-free solutions of sodium iodide that were at a pH of 4.5. A molar excess of iodide was used. Based on thiosulfate titrations, potentiometric measurements of iodine and ion selective electrode measurements of iodide ion, essentially all of the elemental iodine was converted into triiodide. Solutions of triiodide were made that varied from 100 to 25,000 ppm. Four mL of each sample was transferred to a 1.0 dram vial (Kimble catalog #60931) at room temperature and placed on the forearm of a subject and then the forearm was inverted to initiate contact of the sample with the triiodide solution. The samples were held on the arm for 10 seconds.
The contact areas were checked for stains at 10 minutes and 3 hours after exposure.

Staphylococcus aureus = assay: Residual biocidal effect of skin associated iodine, colony counts from inoculated treated skin; format: in vivo; details: solution with 700 ppm of triiodide, but no molecular iodine
Experimental: 5. […] […] […] […] The samples were contacted with the arm for 30 seconds. After contact the treated arm was flushed with water for 15 seconds and dried.
[…] Two hours after contact each area was inoculated with […] of a 1:100 dilution of a 48 hour soy-trypticase culture of Staphylococcus aureus. Ninety minutes after inoculation the mouths of sterile 25 mL flasks filled with 2 mL of soy-trypticase with 2% Tween 80 were placed over the marked skin areas. The flasks were gently shaken for 1 minute and a colony count was performed on blood agar plates after incubation at 37° C. for 48 hours. The residual biocidal effect from skin associated molecular iodine was determined by subtracting the log of the colony counts from the areas of skin that were contacted with iodine from the controls (log colony count from untreated skin). The average difference in colony counts between treated and untreated skin was 2.4 logs.

Human Skin = assay: Coloration of human skin by a 30 second exposure (vial contact on forearm); hue by Pantone chips, intensity against Brown No. 3 dye; format: in vivo
Excerpt: 1. […] Elemental iodine was weighed on an analytical balance and dissolved in one liter of water that had been acidified with 2 drops of 0.1N hydrochloric acid. The concentration of molecular iodine in the water was confirmed by potentiometric analysis (Gottardi, W., 1983. Fresenius Z. Anal. Chem., Vol. 314, pages 582-585). Samples were also titrated with thiosulfate to determine that at least 95% of the theoretical yield of titratable iodine was in the form of molecular iodine as opposed to triiodide. The concentration of molecular iodine was varied from 25 ppm to 330 ppm.
One dram vials (Kimble catalog #60931) were used to deliver 4 mL of the room temperature iodine solutions samples. The vials were placed on the forearm of a subject and then the forearm was inverted to initiate contact of the sample with the iodine solution. The contact area was a circle with a diameter of 1.3 cm. The samples were held on the arm for 30 seconds at room temperature. Three different subjects were used for this experiment. Immediately after the 30 second contact time the arms of the subjects were examined for stains; 10 minutes after the end of the contact time all subjects arms were examined for stains again..
For the purposes of this application, two different parameters were used to characterize the color and intensity of the term stain. The hue of the color imparted to skin was characterized by using the Pantone Color Matching System (Pantone Color Specifier, Pantone Inc., Carlstadt, N.J.) which allows comparison with 1,012 defined colors on two types of paper. Stains from triiodide were matched to the Pantone color chip No. 152C. Short-lived coloration from molecular iodine were matched to the Pantone color chip 1375C.
The intensity of any coloration on skin was characterized by applying an aqueous solution of known concentrations of a food dye, Brown No. 3 (Crompton & Knowles, Mahwah, N.J. —Code DP935159), for 10 seconds using the method described above for application of iodine. Brown No. 3 was applied to the skin at concentrations that ranged from 500 ppm to 30 ppm and the intensity of the color from Brown No. 3 was compared to the intensity of coloration from iodine compositions. For instance, the intensity of color 10 minutes after a 30 second contact with a 600 ppm aqueous triiodide solution was equivalent to the color from a 10 second exposure to a 250 ppm Brown No. 3 solution. In contrast, the intensity of color 10 minutes after a 30 second contact with a 300 ppm aqueous molecular iodine solution was equivalent to the color from a ten second exposure to a 30 ppm Brown No. 3 solution which is barely discernible.

I[IH]I [triiodide, reference compound]
Staining at three hours (epidermis; 100 ppm triiodide): staining was present at three hours but it was not visibly noticeable | Degree of color (epidermis; 700 ppm triiodide, 3 hours after contact): minimally discernable | Coloration of the epidermis 3 hours after contact (epidermis; triiodide at concentrations from 25,000 to 700 ppm): A definite coloration of the epidermis was evident | Reduction in the concentration of pathogens (Staphylococcus aureus): no measurable reduction | Intensity of color on skin, equivalent Brown No. 3 solution (10 second exposure) (Human Skin; 10 minutes after a 30 second contact with a 600 ppm aqueous triiodide solution): 250 ppm | Hue of the color imparted to skin, matched Pantone color chip (Human Skin; Pantone Color Matching System): 152C
